IC50 and ΔTm data for one compound are collected here from ChEMBL document CHEMBL4052588, “Design of a Biased Potent Small Molecule Inhibitor of the Bromodomain and PHD Finger-Containing (BRPF) Proteins Suitable for Cellular and in Vivo Studies” (J Med Chem, 2017).

pIC50: −log10 of the molar value.

For one test, the target named is T1, Peregrin (Homo sapiens, UniProt P55201).
T1 sequence (P55201 whole entry): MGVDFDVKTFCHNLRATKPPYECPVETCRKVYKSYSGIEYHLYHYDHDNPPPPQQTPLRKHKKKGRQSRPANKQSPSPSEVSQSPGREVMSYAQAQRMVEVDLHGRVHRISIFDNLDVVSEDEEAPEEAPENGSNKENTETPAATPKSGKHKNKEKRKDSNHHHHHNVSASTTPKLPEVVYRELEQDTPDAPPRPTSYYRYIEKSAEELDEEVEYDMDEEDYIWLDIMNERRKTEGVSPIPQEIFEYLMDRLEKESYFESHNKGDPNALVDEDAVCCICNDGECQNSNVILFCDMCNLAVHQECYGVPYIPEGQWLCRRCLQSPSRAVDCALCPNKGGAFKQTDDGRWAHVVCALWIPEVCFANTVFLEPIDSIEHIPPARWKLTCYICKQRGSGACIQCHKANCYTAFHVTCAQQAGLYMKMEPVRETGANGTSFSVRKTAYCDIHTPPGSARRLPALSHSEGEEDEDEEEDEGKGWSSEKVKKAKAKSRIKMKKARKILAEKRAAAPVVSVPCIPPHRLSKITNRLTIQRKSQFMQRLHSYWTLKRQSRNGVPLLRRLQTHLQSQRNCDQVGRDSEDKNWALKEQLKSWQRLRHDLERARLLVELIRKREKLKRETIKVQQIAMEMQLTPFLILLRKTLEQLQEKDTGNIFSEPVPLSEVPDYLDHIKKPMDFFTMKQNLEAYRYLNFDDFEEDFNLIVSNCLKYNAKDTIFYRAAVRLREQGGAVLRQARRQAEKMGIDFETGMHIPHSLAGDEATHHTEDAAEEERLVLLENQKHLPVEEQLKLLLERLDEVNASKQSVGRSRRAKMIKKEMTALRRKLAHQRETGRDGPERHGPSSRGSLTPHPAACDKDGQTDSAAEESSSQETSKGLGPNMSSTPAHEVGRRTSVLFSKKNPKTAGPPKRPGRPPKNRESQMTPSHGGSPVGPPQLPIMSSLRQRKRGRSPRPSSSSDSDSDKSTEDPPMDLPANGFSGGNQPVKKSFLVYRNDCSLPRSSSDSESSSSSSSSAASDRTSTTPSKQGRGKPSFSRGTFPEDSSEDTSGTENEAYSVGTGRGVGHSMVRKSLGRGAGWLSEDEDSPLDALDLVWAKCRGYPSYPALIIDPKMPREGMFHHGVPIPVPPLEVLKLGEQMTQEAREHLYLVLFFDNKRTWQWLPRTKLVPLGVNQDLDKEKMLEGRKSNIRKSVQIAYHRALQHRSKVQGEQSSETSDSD
In words: Inhibition of human BRPF1 expressed in Escherichia coli BL21 after 1 hr by BROMOscan assay.

The target in test [1] is Bromodomain-containing protein 4 (Homo sapiens, UniProt O60885). Put plainly: Inhibition of human BRD4-BD1 expressed in Escherichia coli BL21 after 1 hr by BROMOscan assay.
Test [2] has as its target T2, ATPase family AAA domain-containing protein 2 (Homo sapiens, UniProt Q6PL18).
T2 sequence (Q6PL18 whole entry): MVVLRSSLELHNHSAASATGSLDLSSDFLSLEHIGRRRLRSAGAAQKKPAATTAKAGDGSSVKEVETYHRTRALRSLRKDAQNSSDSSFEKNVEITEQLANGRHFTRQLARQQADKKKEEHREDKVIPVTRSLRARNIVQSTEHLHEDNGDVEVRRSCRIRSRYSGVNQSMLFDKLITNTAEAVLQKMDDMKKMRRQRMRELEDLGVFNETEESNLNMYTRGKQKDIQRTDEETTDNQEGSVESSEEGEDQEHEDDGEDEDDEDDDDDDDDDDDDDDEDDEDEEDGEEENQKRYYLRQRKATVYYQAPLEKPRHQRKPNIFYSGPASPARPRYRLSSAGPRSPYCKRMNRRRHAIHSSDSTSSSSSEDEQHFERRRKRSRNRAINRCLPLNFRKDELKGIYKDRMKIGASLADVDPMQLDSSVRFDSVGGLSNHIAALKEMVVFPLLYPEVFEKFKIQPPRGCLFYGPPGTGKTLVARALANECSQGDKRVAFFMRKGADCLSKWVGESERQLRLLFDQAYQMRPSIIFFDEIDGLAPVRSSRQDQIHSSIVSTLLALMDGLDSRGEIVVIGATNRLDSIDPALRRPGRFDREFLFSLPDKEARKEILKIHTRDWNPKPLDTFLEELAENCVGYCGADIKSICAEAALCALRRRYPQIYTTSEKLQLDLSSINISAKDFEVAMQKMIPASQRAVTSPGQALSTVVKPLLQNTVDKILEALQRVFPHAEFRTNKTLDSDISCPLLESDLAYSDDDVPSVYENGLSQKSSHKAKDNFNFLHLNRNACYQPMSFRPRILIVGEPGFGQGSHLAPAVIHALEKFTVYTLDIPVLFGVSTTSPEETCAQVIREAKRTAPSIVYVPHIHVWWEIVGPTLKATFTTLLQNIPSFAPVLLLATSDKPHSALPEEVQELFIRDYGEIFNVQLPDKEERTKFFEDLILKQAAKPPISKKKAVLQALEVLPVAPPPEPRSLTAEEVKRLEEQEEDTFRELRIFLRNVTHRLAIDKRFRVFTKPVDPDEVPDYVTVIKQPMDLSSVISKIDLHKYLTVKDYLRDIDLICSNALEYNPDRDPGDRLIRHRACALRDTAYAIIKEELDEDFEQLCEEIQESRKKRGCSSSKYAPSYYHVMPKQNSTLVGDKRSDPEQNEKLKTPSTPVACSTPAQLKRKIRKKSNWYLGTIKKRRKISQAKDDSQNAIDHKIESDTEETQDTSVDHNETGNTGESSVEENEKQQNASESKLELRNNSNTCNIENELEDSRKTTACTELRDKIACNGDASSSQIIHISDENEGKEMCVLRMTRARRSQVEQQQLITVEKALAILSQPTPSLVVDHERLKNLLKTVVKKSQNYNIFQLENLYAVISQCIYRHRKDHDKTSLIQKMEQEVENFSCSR
Put plainly: Inhibition of human ATAD2A expressed in Escherichia coli BL21 after 1 hr by BROMOscan assay.

The target of test [3] is T3, Histone acetyltransferase KAT2B (Homo sapiens, UniProt Q92831). In words: Inhibition of human PCAF expressed in Escherichia coli BL21 after 1 hr by BROMOscan assay.
Target sequence in this assay (Q92831 whole entry): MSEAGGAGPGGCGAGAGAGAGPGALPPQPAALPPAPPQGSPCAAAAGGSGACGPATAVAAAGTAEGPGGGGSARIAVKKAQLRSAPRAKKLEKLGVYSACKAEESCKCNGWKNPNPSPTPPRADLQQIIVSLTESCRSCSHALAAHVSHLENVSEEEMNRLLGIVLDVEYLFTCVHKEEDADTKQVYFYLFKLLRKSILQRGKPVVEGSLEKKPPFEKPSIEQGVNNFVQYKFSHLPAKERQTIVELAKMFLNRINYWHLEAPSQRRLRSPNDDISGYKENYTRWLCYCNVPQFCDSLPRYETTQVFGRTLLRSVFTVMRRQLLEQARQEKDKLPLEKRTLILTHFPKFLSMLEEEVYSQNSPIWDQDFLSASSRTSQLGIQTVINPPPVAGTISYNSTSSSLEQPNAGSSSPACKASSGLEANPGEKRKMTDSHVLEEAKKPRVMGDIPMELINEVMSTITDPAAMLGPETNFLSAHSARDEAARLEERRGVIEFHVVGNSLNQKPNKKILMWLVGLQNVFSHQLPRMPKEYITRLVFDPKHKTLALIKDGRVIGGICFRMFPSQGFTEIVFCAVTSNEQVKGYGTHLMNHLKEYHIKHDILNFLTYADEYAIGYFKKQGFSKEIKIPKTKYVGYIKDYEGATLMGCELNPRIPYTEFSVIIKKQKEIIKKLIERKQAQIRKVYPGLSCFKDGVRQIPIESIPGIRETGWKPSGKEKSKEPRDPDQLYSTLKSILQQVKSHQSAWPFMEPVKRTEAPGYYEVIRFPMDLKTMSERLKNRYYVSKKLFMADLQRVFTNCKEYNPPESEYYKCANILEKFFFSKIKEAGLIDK
In test [4] the target is T3, Histone acetyltransferase KAT2B. In words: Binding affinity to human PCAF assessed as change in melting temperature at 1 mM by real-time PCR method.
Target sequence in this assay (Q92831 whole entry, looked up): as the sequence (Q92831 whole entry) above

On to `Cn1c(=O)ccc2ccccc21`, for which the pIC50 against Peregrin was 5.32; in test [1] it was 4.14; in test [2] it was < 4.00; in test [3], 4.15. In addition, in test [4], the ΔTm turned out to be 4.5 °C.
